Measurements from patent publication US20240417410A1, “TRICYCLIC COMPOUNDS FOR THE TREATMENT OF CANCER” (Hoffmann-La Roche Inc., priority 2023, published 2024).

Legend:
KRAS G12C-BRAF complex = KRAS G12C-BRAF complex (Homo sapiens (Human), UniProt P01116+P62937, G12C); test: KRAS-BRAF with CYPA (500 nM) interaction assay (TR-FRET, Example 136); type: biochemical; conditions: KRAS G12C-BRAF disruption
Procedure: In this example, TR-FRET was also used to measure the compound or compound-CYPA dependent disruption of the KRAS G12C-BRAF complex. This protocol was also used to measure disruption of KRAS G12D or KRAS G12V binding to BRAF by a compound of the invention, respectively. In assay buffer containing 25 mM HEPES PH=7.4 (4-(2-hydroxyethyl)-1-piperazineethanesulfonic acid, Thermo, 15630080), 0.002% Tween20, 0.1% BSA, 100 mM NaCl, 5 mM MgCl2, 10 μM GMPPNP (Guanosine 5′-[β,γ-imido]triphosphate trisodium salt hydrate, Sigma, G0635), […] 384-well assay plate at final concentrations of 50 nM, 6.25 nM and 1 nM, respectively. Compound was present in plate wells as a 16-point 3-fold dilution series starting at a final concentration of 10 μM and incubated for 3 hours. A mixture of MAb Anti-6His-XL665 (Cisbio, 61HISXLB) and Mab anti-GST-TB cryptate (Cisbio, 61GSTTLB) was then added at a final concentration of 6.67 nM and 0.21 nM, respectively, and the plate was incubated for an additional 1.5 hours. TR-FRET signal was read on a PHERstar FSX microplate reader (Ex320 nm, Em 665/615 nm). Compounds that facilitate disruption of the KRAS-BRAF complex were identified as those eliciting a decrease in the TR-FRET ratio relative to DMSO control wells.

[1] = system: phosphorylation of ERK, KRAS G12V in SW620; test: pERK inhibition assay; type: cell-based; conditions: Homo sapiens, SW-620, 4 h, SW620 cells
Method in brief: (§1)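 Phospho-ERK quantified by in-cell ELISA with TMB read-out at OD450 following 4 h compound exposure (final 0.5% DMSO). Cell lines were SW620 (KRAS G12V), AGS (G12D) and NCI-H358 (G12C), grown in RPMI-1640 with 10% FBS. A 4-parameter sigmoidal model gave the IC50.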

[2] = system: phosphorylation of ERK, KRAS G12D in AGS cells; test: pERK inhibition assay; type: cell-based; conditions: Homo sapiens, AGS, 4 h
Method in brief: as §1

[3] = system: phosphorylation of ERK, KRAS G12C in NCI-H358 cells; test: pERK inhibition assay; type: cell-based; conditions: Homo sapiens, NCI-H358, 4 h
Method in brief: as §1

SW620 cells (KRAS G12V) = test: Cell viability assay (Cell Counting Kit-8, 3-day); type: cell-based, human; conditions: Homo sapiens, SW-620; SW620, 72 hrs incubation
Method in brief: (§2)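 Cells were seeded at 5,000 cells/well (NCI-H358) or 2,000 cells/well (AGS, SW620), incubated overnight, then treated with compounds in 0.5% DMSO final for 72 hrs. CCK-8 was added and OD450 minus OD650 read after 2 hrs; IC50 came from a 4-parameter sigmoidal fit.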

[4] = system: NCI-H358 cells (KRAS G12C); test: Cell viability assay (Cell Counting Kit-8, 3-day); type: cell-based, human; conditions: Homo sapiens, NCI-H358, 72 h, NCI-H358, 72 hrs incubation
Method in brief: as §2

AGS cells (KRAS G12D) = test: Cell viability assay (Cell Counting Kit-8, 3-day); type: cell-based, human; conditions: Homo sapiens, 72 h, 72 hrs incubation
Method in brief: as §2

KRAS G12C-BRAF complex, sequence (P01116-2 other isoform, or with tags, fused parts or gaps G12C): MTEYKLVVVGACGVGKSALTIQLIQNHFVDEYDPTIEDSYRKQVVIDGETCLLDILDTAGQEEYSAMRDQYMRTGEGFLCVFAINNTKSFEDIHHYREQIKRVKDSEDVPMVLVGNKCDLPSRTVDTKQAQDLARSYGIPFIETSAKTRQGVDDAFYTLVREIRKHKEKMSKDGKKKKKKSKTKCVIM
KRAS G12C-BRAF complex, sequence (P62937 whole entry): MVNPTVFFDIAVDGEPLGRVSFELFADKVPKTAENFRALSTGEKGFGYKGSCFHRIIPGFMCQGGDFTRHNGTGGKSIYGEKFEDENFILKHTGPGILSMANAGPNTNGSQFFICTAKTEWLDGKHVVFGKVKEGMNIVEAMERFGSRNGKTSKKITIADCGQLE

Compound	IC50 (KRAS G12C-BRAF complex) [nM]	IC50 [1] [nM]	IC50 [2] [nM]	IC50 [3] [nM]	IC50 (SW620 cells (KRAS G12V)) [nM]	IC50 [4] [nM]	IC50 (AGS cells (KRAS G12D)) [nM]
CO[C@@H](C)c1ncc(N2CCN(C)CC2)cc1-c1c2c3cc(cc4c3n1CCC4)-c1csc(n1)C[C@H](NC(=O)[C@@H]1C[C@H]1C1CC1)C(=O)N1CCC[C@H](N1)C(=O)OCC(C)(C)C2 (atropisomer, axis not shown; (M)) [Example 16, (1R,2S)-2-cyclopropyl-N-[(7S,13S)-(20M)-20-[2-[(1S)-1-methoxyethyl]-5-(4-methylpiperazin-1-yl)-3-pyridyl]-17,17-dimethyl-8,14-dioxo-15-oxa-4-thia-9,21,30,31-tetrazahexacyclo[23.3.1.1^2,5.1^9,13.0^19,27.0^21,26]hentriaconta-1 (28),2,5 (31),19,25 (29),26-hexaen-7-yl]cyclopropanecarboxamide]	10.2	2.8	2.6	4.6	1.6	7.3	25.9
CO[C@@H](C)c1ncc(N2CCN(CC(F)(F)F)CC2)cc1-c1c2c3cc(cc4c3n1CCC4)-c1csc(n1)C[C@H](NC(=O)[C@H]1C[C@@H]1c1cccnc1)C(=O)N1CCC[C@H](N1)C(=O)OCC(C)(C)C2 (atropisomer, axis not shown; (M)) [Example 90, (1S,2S)-N-[(7S,13S)-(20M)-20-[2-[(1S)-1-methoxyethyl]-5-[4-(2,2,2-trifluoroethyl)piperazin-1-yl]-3-pyridyl]-17,17-dimethyl-8,14-dioxo-15-oxa-4-thia-9,21,30,31-tetrazahexacyclo[23.3.1.1^2,5.1^9,13.0^19,27.0^21,26]hentriaconta-1 (28),2,5 (31), 19,25 (29),26-hexaen-7-yl]-2-(3-pyridyl)cyclopropanecarboxamide]	6.4	0.6	9.4	1.7	0.8	3.3	16.8
CO[C@@H](C)c1ncc(N2CCN(C)CC2)cc1-c1c2c3cc(cc4c3n1CCC4)-c1csc(n1)C[C@H](NC(=O)C1CCC(F)(F)C1)C(=O)N1CCC[C@H](N1)C(=O)OCC(C)(C)C2 (stereo partly drawn) [Example 65, 3,3-difluoro-N-[(7S,13S)-(20M)-20-[2-[(1S)-1-methoxyethyl]-5-(4-methylpiperazin-1-yl)-3-pyridyl]-17,17-dimethyl-8,14-dioxo-15-oxa-4-thia-9,21,30,31-tetrazahexacyclo[23.3.1.1^2,5.1^9,13.0^19,27.0^21,26]hentriaconta-1 (28),2,5 (31), 19,25 (29),26-hexaen-7-yl]cyclopentanecarboxamide]	51.3	5	31.7	2.3			
CO[C@@H](C)c1ncc(N2CCOCC2)cc1-c1c2c3cc(cc4c3n1[C@@H](C)CO4)-c1csc(n1)C[C@H](NC(=O)[C@H]1C[C@@H]1C)C(=O)N1CCC[C@H](N1)C(=O)OCC(C)(C)C2 (atropisomer, axis not shown; (M)) [Example 53, (1S,2S)-N-[(7S,13S,22S)-(20M)-20-[2-[(1S)-1-methoxyethyl]-5-morpholino-3-pyridyl]-17,17,22-trimethyl-8,14-dioxo-15,24-dioxa-4-thia-9,21,30,31-tetrazahexacyclo[23.3.1.1^2,5.1^9,13.0^19,27.0^21,26]hentriaconta-1 (28),2,5 (31), 19,25 (29),26-hexaen-7-yl]-2-methyl-cyclopropanecarboxamide]	65.7	24.5	176	21.2			
CO[C@@H](C)c1ncc(N2CCN(C)CC2)cc1-c1c2c3cc(cc4c3n1CCC4)-c1csc(n1)C[C@H](NC(=O)[C@H]1CC[C@](C)(O)CC1)C(=O)N1CCC[C@H](N1)C(=O)OCC(C)(C)C2 (atropisomer, axis not shown; (M)) [Example 71, trans-4-hydroxy-N-[(7S,13S)-(20M)-20-[2-[(1S)-1-methoxyethyl]-5-(4-methylpiperazin-1-yl)-3-pyridyl]-17,17-dimethyl-8,14-dioxo-15-oxa-4-thia-9,21,30,31-tetrazahexacyclo[23.3.1.1^2,5.1^9,13.0^19,27.0^21,26]hentriaconta-1 (28),2,5 (31), 19,25 (29),26-hexaen-7-yl]-4-methyl-cyclohexanecarboxamide]	28.9	6.5	51.5	3.6			
CO[C@@H](C)c1ncc(N2CCN(C)CC2)cc1-c1c2c3cc(cc4c3n1CCC4)-c1csc(n1)C[C@H](NC(=O)C13CC(CO1)C3)C(=O)N1CCC[C@H](N1)C(=O)OCC(C)(C)C2 [Example 66, N-[(7S,13S)-(20M)-20-[2-[(1S)-1-methoxyethyl]-5-(4-methylpiperazin-1-yl)-3-pyridyl]-17,17-dimethyl-8,14-dioxo-15-oxa-4-thia-9,21,30,31-tetrazahexacyclo[23.3.1.1^2,5.1^9,13.0^19,27.0^21,26]hentriaconta-1 (28),2,5 (31), 19,25 (29),26-hexaen-7-yl]-2-oxabicyclo[2.1.1]hexane-1-carboxamide]	50.5	3.3	40.2	2.6			
CO[C@@H](C)c1ncc(N2CCN(CC(F)(F)F)CC2)cc1-c1c2c3cc(cc4c3n1CCC4)-c1csc(n1)C[C@H](NC(=O)[C@H]1C[C@@H]1C)C(=O)N1CCC[C@H](N1)C(=O)OCC(C)(C)C2 (atropisomer, axis not shown; (M)) [Example 3, (1S,2S)-N-[(7S,13S)-(20M)-20-[2-[(1S)-1-methoxyethyl]-5-[4-(2,2,2-trifluoroethyl)piperazin-1-yl]-3-pyridyl]-17,17-dimethyl-8,14-dioxo-15-oxa-4-thia-9,21,30,31-tetrazahexacyclo[23.3.1.1^2,5.1^9,13.0^19,27.0^21,26]hentriaconta-1 (28),2,5 (31), 19,25 (29),26-hexaen-7-yl]-2-methyl-cyclopropanecarboxamide]	31.4	3.6	24.3	5.1			
CO[C@@H](C)c1ncc(N2CCN(C)CC2)cc1-c1c2c3cc(cc4c3n1CCC4)-c1csc(n1)C[C@H](NC(=O)C1CCOCC1)C(=O)N1CCC[C@H](N1)C(=O)OCC(C)(C)C2 (atropisomer, axis not shown; (M)) [Example 77, N-[(7S,13S)-(20M)-20-[2-[(1S)-1-methoxyethyl]-5-(4-methylpiperazin-1-yl)-3-pyridyl]-17,17-dimethyl-8,14-dioxo-15-oxa-4-thia-9,21,30,31-tetrazahexacyclo[23.3.1.1^2,5.1^9,13.0^19,27.0^21,26]hentriaconta-1 (28),2,5 (31),19,25 (29),26-hexaen-7-yl]tetrahydropyran-4-carboxamide]	41.8	4	26.1	4.4			
CO[C@@H](C)c1ncc(N2CCN(C)CC2)cc1-c1c2c3cc(cc4c3n1CCC4)-c1csc(n1)C[C@H](NC(=O)C13C4CC1CC3C4)C(=O)N1CCC[C@H](N1)C(=O)OCC(C)(C)C2 (stereo partly drawn) [Example 72, N-[(7S,13S)-(20M)-20-[2-[(1S)-1-methoxyethyl]-5-(4-methylpiperazin-1-yl)-3-pyridyl]-17,17-dimethyl-8,14-dioxo-15-oxa-4-thia-9,21,30,31-tetrazahexacyclo[23.3.1.1^2,5.1^9,13.0^19,27.0^21,26]hentriaconta-1 (28),2,5 (31), 19,25 (29),26-hexaen-7-yl]tricyclo[3.1.1.0^3,6]heptane-6-carboxamide]	31.5	4.8	41.5	2.3			
